Results on nine compounds are retold here after EPA's ToxValDB 9.5.

One may read the LD50 as the dose expected to kill half of the subjects tested. High values mean lower toxicity, low ones greater toxicity. By NOAEL is commonly meant the highest tested level that showed no adverse finding. For orientation: LOAEL means the lowest dose or exposure tested at which an adverse effect was seen. One may read the LC50 as the concentration that kills 50% of the test population. A higher LC50 goes with a less lethal substance.

Where “and” joins values, the source holds several entries; their conditions need not be identical. Equal values may be shown once. Some results are limits rather than exact numbers.

For data set [1], the system named is Oryctolagus sp. Conditions: for LD50: acute; for NOAEL: reproduction developmental.
Data set [2] deals with Rattus norvegicus. Particulars: for LD50 / LC50: acute.
Where [3] appears, read: developmental, duration: 10 days, oral, gavage, Sprague-Dawley.
The mark [4] stands for this setting: reproduction developmental, duration: 10 days, oral, gavage, F, Sprague-Dawley.
[5] abbreviates: subchronic, duration: 90 days, oral, gavage, Sprague-Dawley.
Setting [6] is: reproduction developmental, duration: 4 weeks, inhalation, particle, Sprague-Dawley.
The mark [7] stands for this setting: short-term, duration: 4 weeks, oral, diet, Crl:CD(SD).
Setting [8] is: reproduction developmental, oral, gavage, Sprague-Dawley.
The mark [9] stands for this setting: subchronic, duration: 13 weeks, oral, gavage, Sprague-Dawley.
The mark [10] stands for this setting: subchronic, duration: 90 days, oral, diet, Wistar.

On to `CC(C)CC(C)Nc1ccc(Nc2ccccc2)cc1` (centres undefined) [6PPD], for which the LD50 was more than 7940 mg/kg in data set [1] (dermal, occlusive, New Zealand); more than 5000 mg/kg in data set [2] (oral, Sprague-Dawley); 3580 mg/kg in data set [2] (oral, gavage, Sprague-Dawley). In addition, the no observed adverse effect level (NOAEL) was 30 mg/kg-day in data set [1] (duration: 13 days, oral, F, New Zealand); more than 250 mg/kg-day in data set [2] (setting [3]); 100 ppm in data set [2] (reproduction developmental, duration: 23 weeks, oral, diet, Sprague-Dawley, generation: F0); 1000 ppm in data set [2] (reproduction developmental, duration: 23 weeks, oral, diet, Sprague-Dawley, generation: F1); 1000 ppm in data set [2] (reproduction developmental, duration: 23 weeks, oral, diet, Sprague-Dawley, generation: F2); 50 mg/kg-day in data set [2] (setting [4]). Also, the NOAEL in data set [2] (reproduction developmental, duration: 21 days, oral, gavage, Sprague-Dawley, generation: F0) was more than 1000 ppm; in data set [2] (reproduction developmental, duration: 21 days, oral, gavage, Sprague-Dawley, generation: F1) it was more than 1000 ppm; in data set [2] (subchronic, duration: 90 days, oral, diet, Sprague-Dawley), 24 mg/kg-day. This compound also displayed an LOAEL in data set [2] (short-term, duration: 4 weeks, inhalation, particle, Sprague-Dawley) of 50 mg/m3.

Take `O=C(OCC1CCC2OC2C1)C1CCC2OC2C1` (centres undefined) [ECC]: the LD50 in data set [1] (dermal, occlusive, New Zealand) is more than 20 mg/kg; in data set [2] (oral, gavage, Sprague-Dawley) it was 5000 mg/kg. The no observed adverse effect level (NOAEL) in data set [2] (developmental, duration: 14 days, oral, gavage, Sprague-Dawley) was 125 mg/kg-day; in data set [2] (reproduction developmental, duration: 14 days, oral, gavage, F, Sprague-Dawley), 25 mg/kg-day; in data set [2] (reproduction developmental, duration: 90 days, oral, gavage, Sprague-Dawley, generation: F0), not below 500 mg/kg-day; in data set [2] (setting [5]), 5 mg/kg-day. In addition, the LOAEL in data set [2] (short-term, duration: 14 days, oral, gavage, Sprague-Dawley) came to 100 mg/kg-day; in data set [2] (setting [5]), 50 mg/kg-day.

With `c1ccc2sc(SN3CCOCC3)nc2c1` [N-Oxydiethylene-2-benzothiazylsulfenamide], the LD50 was more than 5010 mg/kg in data set [1] (dermal, occlusive, New Zealand); 7000 mg/kg in data set [2] (oral); 12600 mg/kg and > 7940 mg/kg in data set [2] (oral, gavage, Sprague-Dawley); more than 10000 mg/kg in data set [2] (oral, gavage, Wistar). Also, the no-observed-adverse-effect level (NOAEL) in data set [1] (duration: 21 days, dermal, New Zealand) turned out to be 2000 mg/kg-day; in data set [2] (developmental, duration: 10 days, oral, gavage), 1000 mg/kg-day; in data set [2] (developmental, duration: 21 days, oral, diet, Wistar) it was 270 mg/kg-day; in data set [2] (setting [6]), 9.8 mg/m3; in data set [2] (reproduction developmental, duration: 10 days, oral, gavage, F) it was 100 mg/kg-day; in data set [2] (reproduction developmental, duration: 21 days, oral, diet, F, Wistar), 270 mg/kg-day. The same compound returned an NOAEL in data set [2] (setting [7]) of 200 mg/kg-day. For the same compound, the LC50 in data set [2] (inhalation, particle) was more than 151 µg/mL. In addition, the LOAEL in data set [2] (setting [6]) was found to be 10.2 mg/m3; in data set [2] (setting [7]), 500 mg/kg-day.

With `CCOP(=O)(CN(CCO)CCO)OCC` [Diethyl (N,N-bis(2-hydroxyethyl)amino)methanephosphonate], the LD50 in data set [1] (dermal) was more than 2000 mg/kg; in data set [1] (dermal, Albino), more than 2000 mg/kg; in data set [2] (oral, gavage, Sprague-Dawley), more than 5000 mg/kg. Moreover, the lowest observed adverse effect level (LOAEL) was more than 750 mg/kg-day in data set [2] (setting [8]) and more than 500 mg/kg-day in data set [2] (setting [9]). Also, the NOAEL came out at 750 mg/kg-day in data set [2] (setting [8]) and 500 mg/kg-day in data set [2] (setting [9]).

On to `CCCCCCC=O` [Heptanal], for which the LD50 in data set [1] (dermal) was more than 5000 mg/kg; in data set [2] (oral, gavage) it was more than 5000 mg/kg. The LC50 in data set [2] (Inhalation, Sprague-Dawley) was more than 4.7 µg/mL. The no-observed-adverse-effect level (NOAEL) in data set [2] (reproduction developmental, oral, gavage, F, Wistar) amounted to 2050 mg/kg-day; in data set [2] (setting [10]) it was 37 mg/kg-day. In data set [2] (setting [10]), the LOAEL came out at 150 mg/kg-day.

As for `O=P(OC(CCl)CCl)(OC(CCl)CCl)OC(CCl)CCl` [Tris(1,3-dichloro-2-propyl) phosphate], the LD50 is more than 4640 mg/kg in data set [1] (dermal); 6800 mg/kg in data set [1] (oral, gavage, Dutch-belted); 3160 mg/kg in data set [2] (oral, gavage, Sprague-Dawley). Besides, the NOAEL in data set [2] (chronic, duration: 12 months, oral, diet, Sprague-Dawley) is 5 mg/kg-day; in data set [2] (setting [3]) it was 100 mg/kg-day; in data set [2] (setting [4]) it was 25 mg/kg-day.

Turning to `O=C(Cl)c1ccccc1` [Benzoyl chloride], the LD50 in data set [1] (dermal) was 790 mg/kg; in data set [1] (dermal, occlusive, New Zealand) it was more than 2000 mg/kg; in data set [2] (oral), 2460 mg/kg and 1900 mg/kg; in data set [2] (oral, Spartan), 2620 mg/kg; in data set [2] (oral, gavage, Wistar), 2530 mg/kg. The LC50 is 1.87 µg/mL in data set [2] (inhalation); 1.45 µg/mL and > 1.98 µg/mL and > 2.34 µg/mL in data set [2] (inhalation, Wistar).

With `CCCCCCCCCc1cc2ccccc2c(S(=O)(=O)O)c1CCCCCCCCC` [Dinonylnaphthalenesulfonic acid], the 50% lethal dose (LD50) in data set [1] (dermal, New Zealand) was more than 2000 mg/kg; in data set [2] (oral, gavage, Sprague-Dawley), more than 5000 mg/kg. The same compound yielded a 50% lethal concentration (LC50) in data set [2] (Inhalation, Wistar) of more than 200 µg/mL.

For `CCNc1ccccc1` [N-Ethylaniline], the LD50 in data set [1] (dermal, New Zealand) was more than 2000 mg/kg; in data set [2] (dermal), 1920 mg/kg; in data set [2] (oral) it was 300 mg/kg; in data set [2] (oral, gavage, Sprague-Dawley) it was ≥ 332 mg/kg and ≤ 402 mg/kg. Also, the LC50 in data set [2] (inhalation, Sprague-Dawley) is ≥ 1.13 µg/mL and ≤ 1.48 µg/mL.
